Source: patent US20050095299A1, “Controlled release analgesic suspensions” (priority 2003, published 2005)

Test: Therapeutic duration of action of an immediate release dose (from dosing instructions in labeling)
Assay type: in vivo
Text: As used herein, “ATDAIRD” shall mean the average therapeutic duration of action of an effective immediate release dose” of a particular active ingredient. […] The therapeutic duration of action of a particular active ingredient can readily be determined from the dosing instructions in the labeling for immediate release products containing that particular active ingredient.

In the case of CC(C)Cc1ccc(C(C)C(=O)O)cc1 (stereo not drawn) [ibuprofen, 2-(4-isobutylphenyl)-propionic acid], the “ATDAIRD (average therapeutic duration of action of an effective immediate release dose)” value is reported as 5 h.
For CC(C(=O)O)c1cccc(C(=O)c2ccccc2)c1 (stereo not drawn) [ketoprofen], the “ATDAIRD (average therapeutic duration of action of an effective immediate release dose)” value was 5 h.
With COc1ccc2cc([C@H](C)C(=O)O)ccc2c1 [naproxen] the “ATDAIRD (average therapeutic duration of action of an effective immediate release dose)” value was 10 h.
